Key:
Septoria tritici = test: Test D: preventive spray on wheat seedlings, Septoria tritici (wheat leaf blotch), visual disease rating; format: in vivo; conditions: Zymoseptoria tritici, topical, 504 h, 100 = 100% disease control, 0 = no disease control relative to controls
Source text: (§1) General protocol for preparing test suspensions for Tests A-H: the test compounds were first dissolved in acetone in an amount equal to 3% of the final volume and then suspended at the desired concentration (in ppm) in acetone and purified water (50/50 mix by volume) containing 250 ppm of the surfactant Trem® 014 (polyhydric alcohol esters). The resulting test suspensions were then used in Tests A-F. Spraying a 40 ppm test suspension to the point of run-off on the test plants was the equivalent of a rate of 160 g/ha. Unless otherwise indicated, the rating values indicate a 40 ppm test suspension was used. The test suspension was sprayed to the point of run-off on wheat seedlings. The following day the seedlings were inoculated with a spore suspension of Septoria tritici (the causal agent of wheat leaf blotch) and incubated in saturated atmosphere at 24° C. for 48 h, and then moved to a growth chamber at 20° C. for 19 days, after which time visual disease ratings were made. Results for Tests A-F are given in Table A. In the Table, a rating of 100 indicates 100% disease control and a rating of 0 indicates no disease control (relative to the controls). A dash (-) indicates no test results.

[1] = system: Blumeria graminis f. sp. tritici; test: Test F: preventive spray on wheat seedlings, Blumeria graminis f. sp. tritici (wheat powdery mildew), visual disease rating; format: in vivo; conditions: topical, 192 h, 100 = 100% disease control, 0 = no disease control relative to controls
Source text: as §1, with “spore dust” for “spore suspension”, “of Blumeria graminis f. sp.” for “of Septoria”, “tritici (also known as Erysiphe graminis f. sp. tritici, the” for “tritici (the”, “wheat powdery mildew)” for “wheat leaf blotch)”, “in” for “in saturated atmosphere at 24° C. for 48 h, and then moved to”, “for 8” for “for 19”

Septoria nodorum = test: Test C: preventive spray on wheat seedlings, Septoria nodorum (Septoria glume blotch), visual disease rating; format: in vivo; conditions: Parastagonospora nodorum, topical, 264 h, 100 = 100% disease control, 0 = no disease control relative to controls
Source text: General protocol for preparing test suspensions for Tests A-H: the test compounds were first dissolved in acetone in an amount equal to 3% of the final volume and then suspended at the desired concentration (in ppm) in acetone and purified water (50/50 mix by volume) containing 250 ppm of the surfactant Trem® 014 (polyhydric alcohol esters). The resulting test suspensions were then used in Tests A-F. Spraying a 40 ppm test suspension to the point of run-off on the test plants was the equivalent of a rate of 160 g/ha. Unless otherwise indicated, the rating values indicate a 40 ppm test suspension was used. The test suspension was sprayed to the point of run-off on wheat seedlings. The following day the seedlings were inoculated with a spore suspension of Septoria nodorum (the causal agent of Septoria glume blotch) and incubated in a saturated atmosphere at 20° C. for 48 h, and then moved to a growth chamber at 20° C. for 9 days, after which time visual disease ratings were made. Results for Tests A-F are given in Table A. In the Table, a rating of 100 indicates 100% disease control and a rating of 0 indicates no disease control (relative to the controls). A dash (-) indicates no test results.

[2] = system: Puccinia recondita f. sp. tritici; test: Test E2: preventive spray on wheat seedlings, Puccinia recondita f. sp. tritici (wheat leaf rust), visual disease rating; format: in vivo; conditions: topical, 192 h, 100 = 100% disease control, 0 = no disease control relative to controls
Source text: General protocol for preparing test suspensions for Tests A-H: the test compounds were first dissolved in acetone in an amount equal to 3% of the final volume and then suspended at the desired concentration (in ppm) in acetone and purified water (50/50 mix by volume) containing 250 ppm of the surfactant Trem® 014 (polyhydric alcohol esters). The resulting test suspensions were then used in Tests A-F. Spraying a 40 ppm test suspension to the point of run-off on the test plants was the equivalent of a rate of 160 g/ha. Unless otherwise indicated, the rating values indicate a 40 ppm test suspension was used. The test suspension was sprayed to the point of run-off on wheat seedlings. The following day the seedlings were inoculated with a spore suspension of Puccinia recondita f. sp. tritici (the causal agent of wheat leaf rust) and incubated in a saturated atmosphere at 20° C. for 24 h, and then moved to a growth chamber at 20° C. for 7 days, after which time visual disease ratings were made. Results for Tests A-F are given in Table A. In the Table, a rating of 100 indicates 100% disease control and a rating of 0 indicates no disease control (relative to the controls). A dash (-) indicates no test results.

Botrytis cinerea = test: Test A: preventive spray on tomato seedlings, Botrytis cinerea (tomato Botrytis), visual disease rating; format: in vivo; conditions: 100 = 100% disease control, 0 = no disease control relative to controls
Source text: General protocol for preparing test suspensions for Tests A-H: the test compounds were first dissolved in acetone in an amount equal to 3% of the final volume and then suspended at the desired concentration (in ppm) in acetone and purified water (50/50 mix by volume) containing 250 ppm of the surfactant Trem® 014 (polyhydric alcohol esters). The resulting test suspensions were then used in Tests A-F. Spraying a 40 ppm test suspension to the point of run-off on the test plants was the equivalent of a rate of 160 g/ha. Unless otherwise indicated, the rating values indicate a 40 ppm test suspension was used. The test suspension was sprayed to the point of run-off on tomato seedlings. The following day the seedlings were inoculated with a spore suspension of Botrytis cinerea (the causal agent of tomato Botrytis) and incubated in saturated atmosphere at 20° C. for 48 h, and then moved to a growth chamber at 27° C. for 3 days, after which time visual disease ratings were made. Results for Tests A-F are given in Table A. In the Table, a rating of 100 indicates 100% disease control and a rating of 0 indicates no disease control (relative to the controls). A dash (-) indicates no test results.

melting point: 156 to 158 °C
Structure (SMILES): Cc1cc(F)c(Nc2c(-c3ccc(F)cc3F)c(C)nn2C)c(F)c1 [Compound 9, N-(2,6-difluoro-4-methylphenyl)-4-(2,4-difluorophenyl)-1,3-dimethyl-1H-pyrazol-5-amine]
pest or weed control at 40 µg/mL (Septoria tritici): 100% | pest or weed control at 40 µg/mL [1]: 100% | pest or weed control at 40 µg/mL (Septoria nodorum): 96% | pest or weed control at 40 µg/mL [2]: 96% | pest or weed control at 40 µg/mL (Botrytis cinerea): 100%

— patent US9464056B2, “Fungicidal 4-methylanilino pyrazoles” (E. I. DU PONT DE NEMOURS AND COMPANY, priority 2012, dated 2016)
